# Reference: PMC7216583 (Parasites & Vectors, 2020)
# Counter-ions that a name gives are not always drawn. Like-named read-outs stand apart in the source and are kept apart here.
# Key:
# PARP1 = molecular target: PARP1; parameters: method as in S-inhibitor; conditions: ref S-inhibitor; cited from earlier work
# [1] = test system: Toxoplasma gondii RH-2F tachyzoites; experiment: microbe, parasite or virus in culture; conditions: 72 h
# MEK1/2 = test system: MEK1/2; parameters: method as in S-inhibitor; conditions: ref S-inhibitor; cited from earlier work
# [2] = test system: Toxoplasma gondii RH-2F tachyzoites; conditions: preliminary screen, mean
# phosphodiesterase = molecular target: phosphodiesterase; parameters: method as in S-inhibitor; conditions: ref S-inhibitor; cited from earlier work
# CDK1/cyclin B = test system: CDK1/cyclin B; parameters: method as in S-inhibitor; conditions: ref S-inhibitor; cited from earlier work
# CDK2/cyclin E = test system: CDK2/cyclin E; parameters: method as in S-inhibitor; conditions: ref S-inhibitor; cited from earlier work
# ERβ = test system: ERβ; parameters: method as in S-inhibitor; conditions: ref S-inhibitor; read-out: IC50, ERβ binding; cited from earlier work
# ERα = conditions: read-out: IC50, ERα binding; ref S-inhibitor; cited from earlier work
# in vitro = conditions: human; for viability at 72 h: Host viability (%) mean
# 5-HT2 receptor = molecular target: 5-HT2 receptor; parameters: method as in S-inhibitor; conditions: ref S-inhibitor; read-out: Ki, serotonin 5-HT2; cited from earlier work
# dopamine D2 = molecular target: dopamine D2; parameters: method as in S-inhibitor; conditions: ref S-inhibitor; cited from earlier work
# Abl = test system: Abl; parameters: method as in library vendor description; conditions: ref library vendor description; cited from earlier work
# EGFR = test system: EGFR; parameters: method as in library vendor description; conditions: ref library vendor description; cited from earlier work
# ErbB2 = test system: ErbB2; parameters: method as in library vendor description; conditions: ref library vendor description; cited from earlier work
# [3] = molecular target: serotonin-norepinephrine reuptake; conditions: read-out: Ki, serotonin-norepinephrine reuptake inhibitor; ref S-inhibitor; cited from earlier work
# Flt4 = test system: Flt4; parameters: method as in S-inhibitor; conditions: ref S-inhibitor; cited from earlier work
# HIV-1 IIIB = test system: HIV-1 IIIB; parameters: method as in S-inhibitor; conditions: ref S-inhibitor; cited from earlier work
# HIV-2 EHO = test system: HIV-2 EHO; parameters: method as in S-inhibitor; conditions: ref S-inhibitor; cited from earlier work
# HIV-2 ROD = test system: HIV-2 ROD; parameters: method as in S-inhibitor; conditions: ref S-inhibitor; cited from earlier work
# reverse transcriptase = conditions: read-out: IC50, reverse transcriptase; ref S-inhibitor; cited from earlier work
# S6K1 = test system: S6K1; parameters: method as in S-inhibitor; conditions: ref S-inhibitor; cited from earlier work
# MSK1 = test system: MSK1; parameters: method as in S-inhibitor; conditions: ref S-inhibitor; cited from earlier work
# PKA = test system: PKA; parameters: method as in S-inhibitor; conditions: ref S-inhibitor; cited from earlier work
# PKBα = test system: PKBα; parameters: method as in S-inhibitor; conditions: ref S-inhibitor; cited from earlier work
# MAPKAP-K1b = test system: MAPKAP-K1b; parameters: method as in S-inhibitor; conditions: ref S-inhibitor; cited from earlier work
# If = test system: If; parameters: method as in S-inhibitor; conditions: ref S-inhibitor; cited from earlier work
# smoothened [4] = test system: smoothened; parameters: method as in S-inhibitor; conditions: mouse; ref S-inhibitor; cited from earlier work
# smoothened [5] = test system: smoothened; parameters: method as in S-inhibitor; conditions: human; ref S-inhibitor; cited from earlier work
# glucokinase (GK) = molecular target: glucokinase (GK); parameters: method as in S-inhibitor; conditions: ref S-inhibitor; read-out: EC50, glucokinase activation; cited from earlier work
# V617F mutant JAK2 = test system: V617F mutant JAK2; parameters: method as in S-inhibitor; conditions: in Ba/F3 cells; ref S-inhibitor; cited from earlier work
# FAK = conditions: read-out: IC50, FAK; ref S-inhibitor; cited from earlier work
# D2S receptor = conditions: read-out: Ki, D2S receptor; ref S-inhibitor; cited from earlier work
# D2L receptor = conditions: read-out: Ki, D2L receptor; ref S-inhibitor; cited from earlier work
# D3 receptor = conditions: read-out: Ki, D3 receptor; ref S-inhibitor; cited from earlier work
# D4 receptor = conditions: read-out: Ki, D4 receptor; ref S-inhibitor; cited from earlier work
# [6] = test system: voltage-gated sodium channels; parameters: method as in S-inhibitor; conditions: ref S-inhibitor; cited from earlier work
# WT PFV IN = test system: WT PFV IN; parameters: method as in S-inhibitor; conditions: ref S-inhibitor; cited from earlier work
# S217Q PFV IN = test system: S217Q PFV IN; parameters: method as in S-inhibitor; conditions: ref S-inhibitor; cited from earlier work
# PDE4 = test system: PDE4; parameters: method as in S-inhibitor; conditions: ref S-inhibitor; cited from earlier work
# γ-secretase = molecular target: γ-secretase; parameters: method as in S-inhibitor; conditions: ref S-inhibitor, cited from earlier work
# Notch signaling = test system: Notch signaling; parameters: method as in S-inhibitor; conditions: ref S-inhibitor; cited from earlier work
# (Na,K)-ATPase = molecular target: (Na,K)-ATPase; parameters: method as in S-inhibitor; conditions: one value printed for both enzymes; ref S-inhibitor; cited from earlier work
# alkaline phosphatase = conditions: read-out: IC50, alkaline phosphatase; one value printed for both enzymes; ref S-inhibitor; cited from earlier work
# GSK-3β = test system: GSK-3β; parameters: method as in S-inhibitor; conditions: ref S-inhibitor; cited from earlier work
# [7] = test system: cleavage of Tyr from Met-enkephalin; parameters: method as in S-inhibitor; conditions: ref S-inhibitor; read-out: IC50, inhibition of cleavage of Tyr from Met-enkephalin; cited from earlier work
# [8] = read-out: Parasite inhibition (%) mean, preliminary screen, mean
# [9] = read-out: Parasite inhibition (%) mean
compound,measurement,setting,value
CN(C)Cc1ccc(-c2nc3cccc4c3n2CCNC4=O)cc1 [AG14361],Ki,PARP1,< 5 nM
same,inhibition of growth at 5 µM,[1]; [8],28.9%
Cc1cc(C(=O)NOCCO)c(Nc2ccc(I)cc2F)n(C)c1=O [AZD8330],IC50,MEK1/2,7 nM
same,inhibition of growth at 5 µM,[1]; [8],-18.8%
Cn1c(=O)c2[nH]cnc2n(C)c1=O.Cn1c(=O)c2[nH]cnc2n(C)c1=O.NCCN [Aminophylline (Truphylline)],Parasite inhibition (%) mean,[2],0.8%
same,IC50,phosphodiesterase,120000 nM
CCCCOc1c(C(=O)c2c(F)cc(C)cc2F)c[nH]c2nncc1-2 [BMS-265246],IC50,CDK1/cyclin B,6 nM
same,IC50,CDK2/cyclin E,9 nM
same,inhibition of growth at 5 µM,[1]; [8],7.3%
Cc1c(-c2ccc(O)cc2)n(Cc2ccc(OCCN3CCCCCC3)cc2)c2ccc(O)cc12 [Bazedoxifene HCl],IC50,ERβ,[…]
same,inhibition of growth at 5 µM,[1]; [8],-12.8%
CCN1CCN(c2cc(-c3ccc(F)cc3)c3c(n2)CCCCCC3)CC1 [Blonanserin (Lonasen)],viability at 72 h,in vitro,88.3%
same,Ki,5-HT2 receptor,3.98 nM
same,Ki,dopamine D2,14.8 nM
same,inhibition of growth at 5 µM,[1]; [8],82.1%
COc1cc(Nc2c(C#N)cnc3cc(OCCCN4CCN(C)CC4)c(OC)cc23)c(Cl)cc1Cl [Bosutinib (SKI-606)],IC50,Abl,[…]
same,inhibition of growth at 5 µM,[1]; [8],22.4%
C=CC(=O)Nc1cc2c(Nc3ccc(F)c(Cl)c3)ncnc2cc1OCCCN1CCOCC1 [CI-1033 (Canertinib)],IC50,EGFR,[…]
same,inhibition of growth at 5 µM,[1]; [8],-5.8%
CNCC[C@H](Oc1cccc2ccccc12)c1cccs1 [Duloxetine HCl (Cymbalta)],Ki,[3],4.6 nM
same,inhibition of growth at 5 µM,[1]; [9],30.9%
Cc1cc(Nc2cc(N3CCN(C)CC3)nc(/C=C/c3ccccc3)n2)n[nH]1 [ENMD-2076 L-(+)-Tartaric acid],viability at 72 h,"in vitro; preliminary screen, mean",35.5%
same,IC50,Flt4,15.9 nM
COc1cc2c(cc1Cc1cccc(Cl)c1F)c(=O)c(C(=O)O)cn2[C@H](CO)C(C)C [Elvitegravir (GS-9137)],IC50,HIV-1 IIIB,0.7 nM
same,IC50,HIV-2 EHO,2.8 nM
same,IC50,HIV-2 ROD,1.4 nM
same,inhibition of growth at 5 µM,[1]; [8],0.7%
Nc1nc(=O)n([C@@H]2CS[C@H](CO)O2)cc1F [Emtricitabine (Emtriva)],IC50,reverse transcriptase,27700 nM
same,inhibition of growth at 5 µM,[1]; [9],0.4%
"O=S(=O)(NCCNC/C=C/c1ccc(Br)cc1)c1cccc2cnccc12 [H 89 2HCl, reference compound]","viability at 72 h, 5 µM",in vitro; Host viability (%) Mean ± SD,89.4 ± 4.6%
same,viability at 72 h,in vitro,89.4%
same,IC50,S6K1,80 nM
same,IC50,MSK1,120 nM
same,IC50,PKA,135 nM
same,IC50,MAPKAP-K1b,2800 nM
same,inhibition at 5 µM,[1]; read-out: Parasite inhibition (%) Mean ± SD,83.5 ± 1.8%
COc1cc2c(cc1OC)CC(=O)N(CCCN(C)C[C@@H]1Cc3cc(OC)c(OC)cc31)CC2 [Ivabradine HCl (Procoralan)],IC50,If,2900 nM
same,inhibition of growth at 5 µM,[1]; [8],0.6%
"Cc1c(C(=O)Nc2ccc(N3C[C@@H](C)O[C@@H](C)C3)nc2)cccc1-c1ccc(OC(F)(F)F)cc1 [LDE225 (NVP-LDE225, Erismodegib)]",IC50,smoothened [4],1.3 nM
same,IC50,smoothened [5],2.5 nM
same,inhibition of growth at 5 µM,[1]; [8],-3.8%
O=C(Nc1ncc(SCCN2CCCC2)s1)[C@]1(c2ccc(S(=O)(=O)C3CC3)cc2)C[C@@H]1C1CCCCC1 [LY2608204],EC50,glucokinase (GK),42 nM
same,inhibition of growth at 5 µM,[1]; [9],-25.9%
Cc1cc(Nc2cc(CN3CCOCC3)c3nc(C)c(Cc4ccc(Cl)cc4F)n3n2)n[nH]1 [LY2784544],IC50,V617F mutant JAK2,55 nM
same,inhibition of growth at 5 µM,[1]; [8],11.1%
CS(=O)(=O)c1cccc(CNc2nc(Nc3ccc4c(c3)CCC(=O)N4)ncc2C(F)(F)F)c1 [PF 573228],IC50,FAK,4 nM
same,inhibition of growth at 5 µM,[1]; [8],5%
CCCN[C@H]1CCc2nc(N)sc2C1 [Pramipexole 2HCl monohydrate],Ki,D2S receptor,[…]
same,Ki,D2L receptor,2.2 nM
same,Ki,D3 receptor,0.5 nM
same,Ki,D4 receptor,5.1 nM
same,inhibition of growth at 5 µM,[1]; [9],-9.5%
CCCOc1ccc(C(=O)OCCN(CC)CC)cc1N [Proparacaine HCl],"ED50, voltage-gated sodium channels",[6],Proparacaine HCl is a voltage-gated sodium channels antagonist with ED50 of 3.4 mM.
same,inhibition of growth at 5 µM,[1]; [8],2.4%
Cc1nnc(C(=O)NC(C)(C)c2nc(C(=O)NCc3ccc(F)cc3)c(O)c(=O)n2C)o1 [Raltegravir (MK-0518)],IC50,WT PFV IN,90 nM
same,IC50,S217Q PFV IN,40 nM
same,inhibition of growth at 5 µM,[1]; [8],0.8%
O=C(Nc1c(Cl)cncc1Cl)c1ccc(OC(F)F)c(OCC2CC2)c1 [Roflumilast (Daxas)],IC50,PDE4,0.2 to 4.3 nM
same,inhibition of growth at 5 µM,[1]; [8],-0.2%
CC(C)[C@H](O)C(=O)N[C@@H](C)C(=O)N[C@H]1C(=O)N(C)CCc2ccccc21 [Semagacestat (LY450139)],IC50,"γ-secretase; Aβ38, read-out: IC50, γ-secretase, Aβ38",12 nM
same,IC50,"γ-secretase; Aβ40, read-out: IC50, γ-secretase, Aβ40",12.1 nM
same,IC50,"γ-secretase; Aβ42, read-out: IC50, γ-secretase, Aβ42",10.9 nM
same,IC50,Notch signaling,14.1 nM
same,inhibition of growth at 5 µM,[1]; [8],-9.8%
[Na+].[Na+].[Na+].[O]=[V]([O-])([O-])[O-] [Sodium orthovanadate],Parasite inhibition (%) mean,[2],31.8%
same,IC50,"(Na,K)-ATPase",10000 nM
same,IC50,alkaline phosphatase,10000 nM
Nc1cccc(-c2cc3c(Oc4cccc(O)c4)ncnc3[nH]2)c1 [TWS119],IC50,GSK-3β,30 nM
same,inhibition of growth at 5 µM,[1]; [8],40.8%
Bacitracin zinc,Parasite inhibition (%) mean,[2],9.0%
same,IC50,[7],10000 nM
